# Assay: Entrapment efficiency by absorbance
# Assay type: physicochemical
# Settings: sensitizer and emitter loading in TTA-MSNs
# Method: Next, TTA-MSNs were prepared dependence on the following steps. MSNs (50.0 mg) were dispersed 25 mL round flask in of BDP-F (2 mg), PEA (3 mg) and methyl oleate (150 mg) in THF (10 mL). The mixture solution was stirred until organic solvent evaporation (about 12 h) at room temperature in the dark condition. And then 10 mL PBS buffer was added. The mixture was ultrasonic shocked for 20 min. to make the nanoparticles dispersed in the PBS buffer. Then the BDP-F (sensitizer) and PEA (emitter)-loaded silica nanoparticles were low speed centrifuged (1000 rpm/min) for 5 min. The supernatant was collected and then extracted using dichloromethane (DCM). The DCM solvent containing BDP-F and PEA was used to measure sensitizer and emitter loading by collecting UV-vis absorption spectra using a molar absorption coefficient of 177500 M^−1 cm^−1 with)max=615 nm for BDP-F, 18000 M^−1cm^−1 with λmax=420 nm for PEA. Sensitizer and emitter loading were calculated using the following equation: Entrapment efficiency(%)=absorption of the loaded dye/absorption initial mass of the dye×100%.
# The precipitate sample was extracted with 10 mL DCM. And then absorbance of Cou-C was measured to calculate the entrapment efficiency. Entrapment efficiency(%)=1−absorption of the unloaded prodrug/initial mass of the prodrug×100%.
smiles,measurement,value
"C(#Cc1c2ccccc2cc2ccccc12)c1ccccc1 [PEA, 9-phenylacetylene anthracene]",entrapment efficiency,72%

# — patent US11827655B2, “Triplet-triplet annihilation upconversion system, and compositions and methods thereof for drug delivery” (University of Massachusetts, priority 2017, dated 2023)
